Experimental data from article PMC12154426, “TPP-Based Nanovesicles Kill MDR Neuroblastoma Cells and Induce Moderate ROS Increase, While Exerting Low Toxicity Towards Primary Cell Cultures: An In Vitro Study” (International Journal of Molecular Sciences, 2025).

System: HTLA ER
Experiment: DAPI and Annexin-V/PI staining (necrosis/apoptosis), HTLA ER
Format: cell-based, human
Settings: 24 h
Excerpt: Although it has been reported that diverse therapeutic approaches to counteract cancer, including chemotherapeutic drugs, gamma irradiation, suicide genes, or immunotherapy, are mediated through the induction of apoptosis, also necrosis, as well as other forms of cell death, that are not classified so far, may be triggered by anticancer therapies. Here, to evaluate if BPPB induced apoptosis or necrosis, both NB cell populations were labelled with Annexin-V-FITC/propidium iodide (PI) and analysed by confocal fluorescence microscopy, as reported in the literature. This is a standard procedure to monitor the progression of apoptosis and the possible presence of necrosis. […]
After the treatment, cells were washed with PBS and stained with the fluorescent DNA dye DAPI (1 µg/mL) for 30 min. After additional washing, the images were immediately acquired in the fluorescence mode using a Nikon AX R confocal microscope equipped with a PLAN APO 20× (Nikon Europe, B.V., Amstelveen, The Netherlands).
Apoptotic and necrotic cells were analysed, as described in Marengo et al.. […] After staining, the images were immediately acquired in fluorescence mode using a Nikon AX R confocal microscope equipped with a PLAN APO 20× (Nikon Europe, B.V., Amstelveen, The Netherlands).

**Q.** Which results are given for c1ccc([P+](CCCCCCCCCCCC[P+](c2ccccc2)(c2ccccc2)c2ccccc2)(c2ccccc2)c2ccccc2)cc1 [BPPB, 1,1-(1,12-dodecanediyl)-bis-[1,1,1]-triphenyl phosphonium di-bromide]?
**A.** apoptosis (Annexin V-FITC / PI labelling) (1 µM): marked apoptosis; necrosis (DAPI labelling) (1.0 µM): did not induce the necrosis
